Each block holds one compound with its values, some of them ahead of it.
How the values were obtained:
[1] = test system: Human promyelocytic leukemia HL-60 cells; test: Cell differentiation of HL-60 cells, nitroblue tetrazolium (NBT) reduction / morphology; format: cell-based
Procedure: Human promyelocytic leukemia HL-60 cells were cultured in RPMI-1640 medium supplemented by 10% heat-inactivated calf serum and 100 U/ml of penicillin plus 100 μg/ml of streptomycin. The flasks containing cells and medium were incubated in an incubator with 5% CO2 at 37° C. Log phase cells were seeded into the medium at a concentration of 1.2×10^5to 1.4×10^5 cells per ml and cultured in flasks containing 5 ml of medium. Each group consisted of three flasks. Different concentrations of coumarin-retinoids were added. At intervals following the addition of coumarin-retinoids to the cultures, a small portion of cells was removed and live cells were counted under a light microscope using a dye-exclusionmethod with trypan blue. Cell differentiation was judged in terms of morphology and nitroblue tetrazolium (NBT) reduction.
For a determination of NBT reducing activity, a portion of the coumarin-retinoid-treated cells was removed at intervals following treatment and centrifuged. After centrifugation, 0.5 ml of 0.1% NBT (containing 100 ng TPA) was added to each tube. The contents of the test tubes were then incubated for 1 hour at 37° C. Cell smears were prepared from the cell sediment and stained using the Wright-Giemsa technique. For each smear prepared, 200 cells were isolated for examination under a light microscope with an oil immersion lens. Cells stained with blue-black granules were considered NBT-positive cells. The 50% differentiation or effective concentration (ED50 or EC50) is shown in terms of molar (M) concentration of the […] tested.
For a determination of cell morphology, a cell smear was prepared at intervals following treatment of cells for each coumarin-retinoid concentration group using the Wright-Giemsa stain technique. Stained cells were counted and classified under a light microscope with an oil immersion lens. After treatment with coumarin-retinoids, the morphological development of HL-60 cells proceeded toward mature granulocytes. This development was manifested by decreased cell volume; a lower nuclei to cytoplasm ratio; smaller or missing nuclei; concentration of chromatin; and the appearance of a certain proportion of intermediate and late granuloblasts (progranulocytes), elongated rod granulocytes, and granulocytes with branched nuclei.
(§1) The protocols of Examples 14 and 21 were used, for the NBT and MTT assays, respectively.

HL-60 cells = test: MTT assay, inhibition of HL-60 cells; format: cell-based, human; conditions: HL-60, Table 15
Procedure: Human cancer cell lines (KB, A2780, MCF-7, HL-60, A549) were used. For a monolayer culture, 0.5 ml of trypsin solution ([…]) was added to the flasks for digestion. Microtiter plates (96 well) were used for the cell culture and 200 μl of cell suspension (1200 tumor cells) were placed in each well and incubated at 37° C. for 24 hours. Following the addition of the test compound, the control and treated flasks were placed in a CO2 incubator for 5 day culture. For the MTT assay, 200 μl of MTT solution (5 mg in 10 ml of phosphate buffer) plus the medium were added and incubated for another 4 hours. Following incubation, the supernatant was discarded and 200 μl of DMSO was added to each well. With a mild agitation the OD values were determined by the MR 700 Elisa at 570 nm (reference wavelength was 450 nm). The ED50 of the compound and tumor cell survival rate [formula] as percent inhibition were calculated.
as §1

fetus absorption in mice = test: Effect on fetus absorption in mice; format: in vivo
Procedure: Female mice were examined by vaginal smear the morning after being caged with male mice, and if sperm or a vaginal plug was discovered, then the mice were determined to be pregnant. The retinoids were administered at the dosage indicated starting on the seventh day of pregnancy and continued once a day for the next ten days. On the 20th day after the female mice were determined to be pregnant, they were sacrificed by cervical dislocation. Both sides of the uterus were checked and the number of living embryos, dead embryos, and absorbed embryos were counted. The living embryos were further examined for bone abnormalities.

chondrosarcoma = test: Growth of chondrosarcoma in rats; format: in vivo; conditions: for Body Weight final: in g (unit assumed)
Text: Transplantable chondrosarcomas obtained from Dr. Trown, Hoffman--La Roche Institute of Molecular Biology and Wistar rats obtained from the Breeding Center of Experimental Animals, Chinese Academy of Medical Sciences were used. According to the routine transplantation protocol as described in Cancer Treatment Reports 60(11):1647-1653 (1976) where the small pieces of chondrosarcoma tumor were implanted subcutaneously in the right inguinal region of rats using a trocar. Tumor-bearing rats were randomized to a control group and a treated group. Each group consisted of ten rats. […] Sixty days after transplantation, the rats were sacrificed and the tumor weight was determined. The inhibition rate was calculated according to the following formula: [formula]

SMILES: CCOC(=O)c1cc2c(OC(=O)/C=C(C)/C=C/C=C(C)/C=C/C3=C(C)CCCC3(C)C)cc(OC(=O)/C=C(C)/C=C/C=C(C)/C=C/C3=C(C)CCCC3(C)C)cc2oc1=O [Compound I-21]
- NBT (+) % ([1]; 10^-5 M): 94%
- NBT (+) % ([1]; 10^-6 M): 80%
- NBT (+) % ([1]; 10^-7 M): 41%
- NBT (+) % ([1]; 10^-8 M): 17%

SMILES: CC1=C(/C=C/C(C)=C/C=C/C(C)=C/C(=O)Oc2cc(C(=O)O)c3cc(C(N)=O)c(=O)oc3c2)C(C)(C)CCC1 [Compound I-26]
- NBT (+) % ([1]; 10^-5 M): 97%
- NBT (+) % ([1]; 10^-6 M): 91%
- NBT (+) % ([1]; 10^-7 M): 53%
- NBT (+) % ([1]; 10^-8 M): 34%

SMILES: CC1=C(/C=C/C(C)=C/C=C/C(C)=C/C(=O)Oc2cc3oc(=O)c(C(N)=O)cc3cc2Cl)C(C)(C)CCC1 [Compound I-27]
- NBT (+) % ([1]; 10^-5 M): 88%
- NBT (+) % ([1]; 10^-6 M): 80%
- NBT (+) % ([1]; 10^-7 M): 17%

- EC50 (HL-60 cells; Homo sapiens): > 10 µM
SMILES: CC1=C(/C=C/C(C)=C/C=C/C(C)=C/C(=O)Oc2cc(=O)oc3ccc(C(C)(C)C)cc23)C(C)(C)CCC1 [Compound I-28, 4-retinoyloxy-6-t-butyl-coumarin]

- EC50 (HL-60 cells; Homo sapiens): 1.9 µM
SMILES: CC1=C(/C=C/C(C)=C/C=C/C(C)=C/C(=O)Oc2cc(=O)oc3c(C)cccc23)C(C)(C)CCC1 [Compound I-29]

- EC50 (HL-60 cells; Homo sapiens): > 10 µM
SMILES: CC1=C(/C=C/C(C)=C/C=C/C(C)=C/C(=O)Oc2ccc3c(C)cc(=O)oc3c2C)C(C)(C)CCC1 [Compound I-30]

- EC50 (HL-60 cells; Homo sapiens): > 10 µM
SMILES: CCc1cc2c(C)cc(=O)oc2cc1OC(=O)/C=C(C)/C=C/C=C(C)/C=C/C1=C(C)CCCC1(C)C [Compound I-31, 4-methyl-6-ethyl-7-retinoyloxy-coumarin]

- EC50 (HL-60 cells): 11 µM
- EC50 ([1]; HL-60, Table 15, read-out: NBT ED50): 13 µM
SMILES: CC1=C(/C=C/C(C)=C/C=C/C(C)=C/C(=O)Oc2ccc3c(C)cc(=O)oc3c2)C(C)(C)CCC1 [Compound I-32, 4-methyl-7-retinoyloxy-coumarin]

- EC50 (HL-60 cells; Homo sapiens): 3.2 µM
SMILES: CC1=C(/C=C/C(C)=C/C=C/C(C)=C/C(=O)Oc2cc(OC(=O)/C=C(C)/C=C/C=C(C)/C=C/C3=C(C)CCCC3(C)C)c3c(C)cc(=O)oc3c2)C(C)(C)CCC1 [Compound I-33, 4-methyl-5,7-diretinoyloxy-coumarin]

- EC50 (HL-60 cells; Homo sapiens): > 10 µM
SMILES: CCCCCCc1cc2c(C)cc(=O)oc2cc1OC(=O)/C=C(C)/C=C/C=C(C)/C=C/C1=C(C)CCCC1(C)C [Compound I-34, 4-methyl-6-hexyl-7-retinoyloxy-coumarin]

- EC50 (HL-60 cells; Homo sapiens): 2.6 µM
SMILES: CC1=C(/C=C/C(C)=C/C=C/C(C)=C/C(=O)Oc2cc(=O)oc3ccc(C)cc23)C(C)(C)CCC1 [Compound I-35, 4-retinoyloxy-6-methyl-coumarin]

- EC50 (HL-60 cells; Homo sapiens): 3.2 µM
SMILES: CC1=C(/C=C/C(C)=C/C=C/C(C)=C/C(=O)Oc2ccc3c(C)cc(=O)oc3c2OC(=O)/C=C(C)/C=C/C=C(C)/C=C/C2=C(C)CCCC2(C)C)C(C)(C)CCC1 [Compound I-36, 4-methyl-7,8-diretinoyloxy-coumarin]

SMILES: CC1=C(/C=C/C(C)=C/C=C/C(C)=C/C(=O)Nc2ncnc3c2ncn3C(=O)/C=C(C)/C=C/C=C(C)/C=C/C2=C(C)CCCC2(C)C)C(C)(C)CCC1 [II-A]
- Absorbed Number (fetus absorption in mice; 20 mg/kg, implanted number 141, 12 pregnant mice): 10
- Absorbed Number (fetus absorption in mice; 40 mg/kg, implanted number 181, 15 pregnant mice): 17
- Animals final (chondrosarcoma; 2 mg/kg × 10, initial 10): 9
- Body Weight final (chondrosarcoma; 2 mg/kg × 10, initial 74.1): 130.6
- Inhibition rate (%) (chondrosarcoma; 5 mg/kg × 10 (Table 14)): 62.6%
- Tumor Weight (chondrosarcoma; 5 mg/kg × 10 (Table 14)): 4.0 grams
- Animals final (chondrosarcoma; 5 mg/kg × 10, initial 10 (Table 14)): 9
- Body Weight final (chondrosarcoma; 5 mg/kg × 10, initial 71.7 (Table 14)): 129.2

Source: patent US5968940A, “Retinoids and methods of use of same” (priority 1996, dated 1999)
